Columns and labels:
[1] = Volume of distribution at steady state in dog; assay type: ADME, organism-based, Canis lupus familiaris; settings: in vivo, read-out: Vdss
[2] = Metabolic stability in human liver microsomes; assay type: ADME, Microsome
[3] = target: T1, C-C chemokine receptor type 1 (Homo sapiens, UniProt P32246); assay: Binding Affinity at CCL3
T1 sequence (P32246 whole entry): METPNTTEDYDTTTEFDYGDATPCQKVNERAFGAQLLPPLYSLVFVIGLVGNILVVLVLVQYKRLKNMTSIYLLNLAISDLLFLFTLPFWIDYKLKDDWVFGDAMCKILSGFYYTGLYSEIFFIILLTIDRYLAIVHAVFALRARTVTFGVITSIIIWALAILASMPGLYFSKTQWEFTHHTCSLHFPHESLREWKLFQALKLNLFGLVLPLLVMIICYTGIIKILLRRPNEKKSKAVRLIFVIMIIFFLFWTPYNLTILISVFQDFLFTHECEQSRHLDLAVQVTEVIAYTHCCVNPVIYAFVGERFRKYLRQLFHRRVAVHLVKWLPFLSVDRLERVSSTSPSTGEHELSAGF

[4] = Half life in dog; assay type: ADME, organism-based, Canis lupus familiaris; settings: in vivo
[5] = Metabolic stability in rat liver microsomes; assay type: ADME, Microsome
[6] = Plasma clearance in iv dosed rat; assay type: ADME, organism-based
[7] = Half life in rat; assay type: ADME, organism-based; settings: in vivo
[8] = Metabolic stability in dog liver microsomes; assay type: ADME, Canis lupus familiaris, Microsome
[9] = Volume of distribution at steady state in rat; assay type: ADME, organism-based; settings: in vivo, read-out: Vdss
[10] = Metabolic stability in monkey liver microsomes; assay type: ADME, Macaca fascicularis, Microsome; settings: cynomolgus monkey
[11] = Plasma clearance in iv dosed dog; assay type: ADME, organism-based, Canis lupus familiaris
[12] = Activity at CCL3 by chemotaxis assay; assay type: functional
[13] = Bioavailability in dog; assay type: ADME, organism-based, Canis lupus familiaris; settings: in vivo
[14] = Bioavailability in rat; assay type: ADME, organism-based; settings: in vivo
[15] = Plasma clearance in monkey; assay type: ADME, organism-based, Macaca fascicularis; settings: cynomolgus monkey
[16] = Half life in monkey; assay type: ADME, organism-based, Macaca fascicularis; settings: cynomolgus monkey, in vivo
[17] = Volume of distribution at steady state in monkey; assay type: ADME, organism-based, Macaca fascicularis; settings: cynomolgus monkey, in vivo; read-out: Vdss
[18] = Bioavailability in monkey; assay type: ADME, organism-based, Macaca fascicularis; settings: cynomolgus monkey, in vivo

| Structure (SMILES) | Vd [1] | CLhep predicted [2] | IC50 [3] | half-life [4] | CLhep predicted [5] | clearance [6] | half-life [7] | CLhep predicted [8] | Vd [9] | CLhep predicted [10] | clearance [11] | IC50 [12] | bioavailability [13] | bioavailability [14] | clearance [15] | half-life [16] | Vd [17] | bioavailability [18] |
| --- | --- | --- | --- | --- | --- | --- | --- | --- | --- | --- | --- | --- | --- | --- | --- | --- | --- | --- |
| C[C@@H]1CN(Cc2ccc(F)cc2)[C@@H](C)CN1C(=O)COc1ccc(Cl)cc1CC(=O)O | 0.3 L/kg | 4.7 mL/min/kg | 38 nM | 660 min | 25 mL/min/kg | 5.2 mL/min/kg | 222 min | 11 mL/min/kg | 3.2 L/kg | 18 mL/min/kg | 0.4 mL/min/kg | 2 nM | – | – | – | – | – | – |
| C[C@@H]1CN(Cc2ccc(F)cc2)[C@@H](C)CN1C(=O)COc1ccc(Cl)cc1C(=O)CCC(=O)O | 4.2 L/kg | 4.7 mL/min/kg | 13 nM | 348 min | 31 mL/min/kg | 42 mL/min/kg | 138 min | 11 mL/min/kg | 4 L/kg | 18 mL/min/kg | 9.7 mL/min/kg | < 0.5 nM | 100% | 9% | – | – | – | – |
| C[C@@H]1CN(Cc2ccc(F)cc2)CCN1C(=O)COc1ccc(Cl)cc1 | – | 14 mL/min/kg | 860 nM | – | 63 mL/min/kg | – | – | 27 mL/min/kg | – | 40 mL/min/kg | – | 86 nM | – | – | – | – | – | – |
| C[C@@H]1CN(Cc2ccc(F)cc2)[C@@H](C)CN1C(=O)COc1ccc(Cl)cc1NC(=O)NCCN | – | 4.9 mL/min/kg | 8 nM | – | 24 mL/min/kg | – | – | 11 mL/min/kg | – | 18 mL/min/kg | – | 1 nM | – | – | – | – | – | – |
| C[C@@H]1CN(Cc2ccc(F)cc2)[C@@H](C)CN1C(=O)COc1ccc(Cl)cc1C(=O)O | 0.2 L/kg | 4.7 mL/min/kg | 59 nM | 660 min | 20 mL/min/kg | 2.4 mL/min/kg | 840 min | 11 mL/min/kg | 2.4 L/kg | 31 mL/min/kg | 0.2 mL/min/kg | 68 nM | – | – | 3.4 mL/min/kg | 354 min | 0.9 L/kg | – |
| C[C@@H]1CN(Cc2ccc(F)cc2)[C@@H](C)CN1C(=O)COc1ccc(Cl)cc1C(=O)NCCN | – | 5.9 mL/min/kg | 30 nM | – | 22 mL/min/kg | 184 mL/min/kg | 60 min | 25 mL/min/kg | 7.7 L/kg | 36 mL/min/kg | – | 3 nM | – | – | – | – | – | – |
| C[C@@H]1CN(Cc2ccc(F)cc2)[C@@H](C)CN1C(=O)COc1ccc(Cl)cc1CS(=O)(=O)O | 0.4 L/kg | 4.7 mL/min/kg | 23 nM | 1260 min | 21 mL/min/kg | 17 mL/min/kg | 276 min | 11 mL/min/kg | 2.6 L/kg | 18 mL/min/kg | 0.2 mL/min/kg | 3 nM | 100% | 40% | 51 mL/min/kg | 66 min | 2.1 L/kg | 19% |
| C[C@@H]1CN(Cc2ccc(F)cc2)CCN1C(=O)COc1ccc(Cl)cc1NC(N)=O [BX 471 FREE BASE] | 0.6 L/kg | 16 mL/min/kg | – | 240 min | 62 mL/min/kg | 33 mL/min/kg | 42 min | 28 mL/min/kg | 1.7 L/kg | 42 mL/min/kg | 1.7 mL/min/kg | 4 nM | – | 2% | 8.9 mL/min/kg | 48 min | 0.6 L/kg | – |
